# Patent publication US20250041245A1, “ENDOXIFEN FOR TREATMENT OF CANCERS” (Atossa Therapeutics, Inc., priority 2021, published 2025)
# “And” between values parts separate entries of the source, which are not always exact repeats. Equal values may be shown once. “Also recorded” adds a separate entry of the source.
# Key:
# Assay type in all cases: cell-based, human
# [1] = test system: patient-derived tumor organoids (PDTOs), esophageal adenocarcinoma; assay: Endoxifen screen in PDTOs: esophageal adenocarcinoma; design: key to Personalization Category: Personalization categories range from High, Good, Moderate, Low, to None; Personalization categories range from High, Good, Moderate, Low, to None; Personalization categories range from High, Good, Moderate, Low, to None; Personalization categories range from High, Good, Moderate, Low, to None; Personalization categories range from High, Good, Moderate, Low, to None; AUC: unit not given beside the values
# Method: (§1) This example describes screening endoxifen in patient-derived tumor organoids. Endoxifen was tested as a single agent on tumor organoids derived from patients diagnosed with various cancer types using a personalized cancer treatment screening assay (PARIS© Test, SEngine Precision Medicine). The screen utilized patient-derived tumor organoids (PDTOs) along with high-throughput drug screening and machine learning-guided data analysis to quantify the efficacy of endoxifen against samples derived from individual patients diagnosed with various cancer types. PDTOs are self-organizing, three-dimensional organoid structures that recapitulate structural, functional, and genomic aspects of in vivo organs. The PDTOs were grown in culture from patient tumor biopsy samples.
# (§2) Fresh patient biopsy samples received following surgery were cleaned and purified. Immune cells (e.g., lymphocytes, blood cells), cancer-associated fibroblasts, and other non-tumor cells were removed to establish pure PDTOs for endoxifen testing. The tumor organoids were grown and expanded by supplying organ- and patient-specific growth factors and nutrients. The PDTOs were treated with increasing concentrations of endoxifen ranging from about 30 nM to about 10 μM, and the drug response was measured using a luminescence readout. A lower luminescence was indicative of a stronger drug response.
# (§3) The results were analyzed using a “SEngine Precision Medicine” (SPM) scoring system to assess the sensitivity and personalization of each tumor organoid to endoxifen. […]
# (§4) This example describes testing endoxifen efficacy against 17 distinct cancer types in patient-derived tumor organoids (PDTOs). […] For each PDTO sample, the drug response was measured using a luminescent readout over a range of endoxifen concentrations. The drug response was evaluated based on the area under the fitted dose response curve (AUC) and the SPM scoring system. […] The area under the curve was calculated from the normalized curve. […] The SPM scores were based on machine learning models that incorporate values for how well the drug kill patient cells (sensitivity metric), the relative drug responses of a patient to all other patients in a sample database (personalization metric), and knowledge of clinical outcomes for patients that had been evaluated with the personalized cancer screening assay (PARIS® Test, SEngine Precision Medicine).
# (§5) The SPM scoring system evaluated whether a PDTO was unresponsive or responsive to endoxifen and the degree of drug response for PDTOs that were responsive to endoxifen. […] The sensitivity category was determined from the sensitivity metric and is a measure of overall cell death of a patient's cells in response to endoxifen at six concentrations. […]
# [2] = test system: patient-derived tumor organoids (PDTOs), colorectal cancer; assay: Endoxifen screen in PDTOs: colorectal cancer; design: key to Personalization Category: Personalization categories range from High, Good, Moderate, Low, to None; Personalization categories range from High, Good, Moderate, Low, to None; Personalization categories range from High, Good, Moderate, Low, to None; Personalization categories range from High, Good, Moderate, Low, to None; Personalization categories range from High, Good, Moderate, Low, to None; key to Sensitivity Category: Sensitivity categories range from High, Good, Moderate, Low, to None; Sensitivity categories range from High, Good, Moderate, Low, to None; Sensitivity categories range from High, Good, Moderate, Low, to None; Sensitivity categories range from High, Good, Moderate, Low, to None; Sensitivity categories range from High, Good, Moderate, Low, to None; AUC: unit not given beside the values; conditions: each line one patient sample
# Method: as §1, §2
# (§6) The results were analyzed using a “SEngine Precision Medicine” (SPM) scoring system to assess the sensitivity and personalization of each tumor organoid to endoxifen. The SPM score correlates with clinical outcomes, such that a higher SPM score for a specific PDTO-drug combination predicts a more favorable clinical outcome following treatment of the corresponding patient with the tested drug.
# (§7) This example describes testing endoxifen efficacy against 17 distinct cancer types in patient-derived tumor organoids (PDTOs). Screening of PDTOs was performed as described in EXAMPLE 1. For each PDTO sample, the drug response was measured using a luminescent readout over a range of endoxifen concentrations. The drug response was evaluated based on the area under the fitted dose response curve (AUC) and the SPM scoring system. AUC values were normalized for each PDTO. Briefly, data points at each drug concentration were first normalized to a negative control, then a dose response drug curve was approximated using a four-parameter logistic model fitted to the normalized data points. The area under the curve was calculated from the normalized curve. Normalization allowed for comparison of AUC values between patient samples. The SPM scores were based on machine learning models that incorporate values for how well the drug kill patient cells (sensitivity metric), the relative drug responses of a patient to all other patients in a sample database (personalization metric), and knowledge of clinical outcomes for patients that had been evaluated with the personalized cancer screening assay (PARIS® Test, SEngine Precision Medicine).
# The SPM scoring system evaluated whether a PDTO was unresponsive or responsive to endoxifen and the degree of drug response for PDTOs that were responsive to endoxifen. The SPM scoring system generated metrics an SPM score, predictive of clinical outcome, overall drug response (response category), drug sensitivity (sensitivity category), and drug personalization (personalization category). SPM scores ranged from 1-15, corresponding to the following drug response categories: no response (SPM 1-8), low response (SPM 9), moderate response (SPM 10-11), good response (SPM 12-13), and exceptional response (SPM 14-15). […] Moderate to good drug responses (SPM 10-13) may indicate that a drug has clinical relevance, possibly in combination with other drugs. The sensitivity category was determined from the sensitivity metric and is a measure of overall cell death of a patient's cells in response to endoxifen at six concentrations. […]
# [3] = test system: patient-derived tumor organoids (PDTOs), endometrial carcinoma; assay: Endoxifen screen in PDTOs: endometrial carcinoma; design: key to Personalization Category: Personalization categories range from High, Good, Moderate, Low, to None; Personalization categories range from High, Good, Moderate, Low, to None; Personalization categories range from High, Good, Moderate, Low, to None; Personalization categories range from High, Good, Moderate, Low, to None; Personalization categories range from High, Good, Moderate, Low, to None; key to Sensitivity Category: Sensitivity categories range from High, Good, Moderate, Low, to None; Sensitivity categories range from High, Good, Moderate, Low, to None; Sensitivity categories range from High, Good, Moderate, Low, to None; Sensitivity categories range from High, Good, Moderate, Low, to None; Sensitivity categories range from High, Good, Moderate, Low, to None; AUC: unit not given beside the values
# Method: as §1, §2, §3, §4, §5
# [4] = test system: patient-derived tumor organoids (PDTOs), myxofibrosarcoma; assay: Endoxifen screen in PDTOs: myxofibrosarcoma; design: key to Personalization Category: Personalization categories range from High, Good, Moderate, Low, to None; Personalization categories range from High, Good, Moderate, Low, to None; Personalization categories range from High, Good, Moderate, Low, to None; Personalization categories range from High, Good, Moderate, Low, to None; Personalization categories range from High, Good, Moderate, Low, to None; key to Sensitivity Category: Sensitivity categories range from High, Good, Moderate, Low, to None; Sensitivity categories range from High, Good, Moderate, Low, to None; Sensitivity categories range from High, Good, Moderate, Low, to None; Sensitivity categories range from High, Good, Moderate, Low, to None; Sensitivity categories range from High, Good, Moderate, Low, to None; AUC: unit not given beside the values
# Method: as §1, §2, §6, §7, §5
smiles,measurement,setting,value
"CC/C(=C(\c1ccc(O)cc1)c1ccc(OCCNC)cc1)c1ccccc1 [Endoxifen, 4-hydroxy-N-desmethyltamoxifen]",IC50,"[1]; Homo sapiens, Patient 14, four-parameter logistic fit",3.97 µM
same,Personalization Category,[1]; Patient 14,Good
same,AUC,"[1]; Patient 14, normalized area under fitted dose response curve",0.7771
same,SPM Score,"[1]; Patient 14, score range 1-15",11
same,Personalization Category,[2],None and Low and Good and Moderate
same,Response Category,[2],None (no response (SPM 1-8)); also recorded: Low (low response (SPM 9)); also recorded: Moderate (moderate response (SPM 10-11))
same,Sensitivity Category,[2],None and Low
same,IC50,[2]; four-parameter logistic fit,7.16 µM and 9.23 µM and 7.23 µM and 5.61 µM and 10 µM and 5.65 µM and 4.72 µM and 3.62 µM and 8.86 µM and 5.67 µM and 6.74 µM and 9.61 µM and 9.09 µM
same,AUC,[2]; normalized area under fitted dose response curve,0.9517 and 0.9919 and 1.0338 and 0.9902 and 1.0377 and 0.9305 and 0.8841 and 0.8215 and 0.9346 and 0.8357 and 0.8866 and 0.9755 and 0.9804 and 0.9752 and 1.0467
same,SPM Score,[2]; score range 1-15,1 (9×) and 3 and 5 and 9 (2×) and 11 and 10
same,Personalization Category,[3]; patient 39,None
same,Sensitivity Category,[3]; patient 39,None
same,AUC,"[3]; patient 39, normalized area under fitted dose response curve",1.0102
same,SPM Score,"[3]; patient 39, score range 1-15",1
same,IC50,"[4]; Homo sapiens, patient 1, four-parameter logistic fit",7.25 µM
same,Personalization Category,[4]; patient 1,None
same,Sensitivity Category,[4]; patient 1,None
same,AUC,"[4]; patient 1, normalized area under fitted dose response curve",0.9384
same,SPM Score,"[4]; patient 1, score range 1-15",1
